Assay results: patent publication US7074789B2, “Kinase inhibitors” (Amgen Inc., priority 1999, dated 2006)

Tests used:
Type in all cases: biochemical
EPHB4 = biological target: T1, EPHB4 (Homo sapiens, UniProt P54760); assay: Kinase inhibition assay (33P transfer), EPHB4; conditions: read-out: EPHB4-1
T1 construct: Kinases are expressed as either kinase domains or full length constructs; made in house
T1 sequence (P54760 16-987): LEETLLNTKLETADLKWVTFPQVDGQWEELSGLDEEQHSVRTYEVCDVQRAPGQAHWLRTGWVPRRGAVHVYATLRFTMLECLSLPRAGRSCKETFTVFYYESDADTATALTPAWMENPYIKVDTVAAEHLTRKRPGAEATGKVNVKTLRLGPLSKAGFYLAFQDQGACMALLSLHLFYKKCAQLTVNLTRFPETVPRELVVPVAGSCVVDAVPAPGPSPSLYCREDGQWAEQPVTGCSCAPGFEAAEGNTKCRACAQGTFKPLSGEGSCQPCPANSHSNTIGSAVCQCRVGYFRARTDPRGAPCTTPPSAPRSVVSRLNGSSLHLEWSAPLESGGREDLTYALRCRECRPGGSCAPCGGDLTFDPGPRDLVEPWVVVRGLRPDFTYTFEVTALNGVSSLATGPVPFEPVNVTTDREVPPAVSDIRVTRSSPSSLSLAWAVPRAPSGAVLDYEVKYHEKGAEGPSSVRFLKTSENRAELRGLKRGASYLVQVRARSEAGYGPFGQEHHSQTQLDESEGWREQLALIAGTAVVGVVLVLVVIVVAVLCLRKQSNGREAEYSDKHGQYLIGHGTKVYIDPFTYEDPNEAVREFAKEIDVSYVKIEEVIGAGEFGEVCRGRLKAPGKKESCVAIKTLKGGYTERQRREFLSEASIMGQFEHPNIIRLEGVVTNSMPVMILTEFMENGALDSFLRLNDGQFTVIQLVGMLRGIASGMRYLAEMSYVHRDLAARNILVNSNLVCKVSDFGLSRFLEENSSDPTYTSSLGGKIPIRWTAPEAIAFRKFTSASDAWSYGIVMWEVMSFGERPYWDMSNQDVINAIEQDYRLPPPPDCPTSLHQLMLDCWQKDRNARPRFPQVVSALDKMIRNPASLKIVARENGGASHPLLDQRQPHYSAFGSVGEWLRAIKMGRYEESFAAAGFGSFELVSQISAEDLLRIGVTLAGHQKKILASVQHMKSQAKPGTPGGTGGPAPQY

AKT = biological target: T2, AKT (Homo sapiens, UniProt Q9Y243); assay: Kinase inhibition assay (33P transfer), AKT; conditions: Table 2, kinase inhibition class; read-out: AKT3-1
T2 construct: Kinases are expressed as either kinase domains or full length constructs; made in house
How it was run: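 Measured by scintillation: radiolabelled phosphate added by tagged recombinant kinases to poly(Glu,Tyr) 4:1 or poly(Arg,Ser) 3:1 attached to microtiter wells, counted once free label was washed away with 0.5% phosphoric acid.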

Tek = biological target: T3, Tek (Homo sapiens, UniProt Q02763); assay: Kinase inhibition assay (33P transfer), Tek; conditions: read-out: Tek-1
T3 construct: Kinases are expressed as either kinase domains or full length constructs; made in house
How it was run: (§1)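 Using immobilised substrate copolymers (poly(Glu,Tyr) 4:1; poly(Arg,Ser) 3:1) and [33P]ATP, purified fusion kinases were allowed to react; plates were then rinsed in 0.5% phosphoric acid and counted in a scintillation detector. Half-maximal inhibition of label transfer defines IC50.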

Hck-1 = biological target: T4, Hck-1 (Homo sapiens, UniProt P08631); assay: Kinase inhibition assay (33P transfer), Hck; conditions: Table 6, Hck-1 kinase inhibition class
T4 construct: Kinases are expressed as either kinase domains or full length constructs; made in house

Flt-1 = biological target: T5, Flt-1 (Homo sapiens, UniProt P17948); assay: Kinase inhibition assay (33P transfer), Flt-1
T5 construct: Kinases are expressed as either kinase domains or full length constructs; made in house
How it was run: as §1

EGFR = biological target: T6, EGFR (Homo sapiens, UniProt P00533); assay: Kinase inhibition assay (33P transfer), EGFR; conditions: Table 2, kinase inhibition class; read-out: EGFR-1
T6 construct: Kinases are expressed as either kinase domains or full length constructs; made in house
How it was run: as §1

Ret-1 = biological target: T7, Ret-1 (Homo sapiens, UniProt P07949); assay: Kinase inhibition assay (33P transfer), Ret; conditions: Table 6, Ret-1 kinase inhibition class
T7 construct: Kinases are expressed as either kinase domains or full length constructs; made in house

ErbB2 = biological target: T8, ErbB2 (Homo sapiens, UniProt P04626); assay: Kinase inhibition assay (33P transfer), ErbB2; conditions: read-out: ErbB2-2
T8 construct: Kinases are expressed as either kinase domains or full length constructs; made in house
How it was run: as §1

T4 sequence (P08631 whole entry, the tested form may be a part): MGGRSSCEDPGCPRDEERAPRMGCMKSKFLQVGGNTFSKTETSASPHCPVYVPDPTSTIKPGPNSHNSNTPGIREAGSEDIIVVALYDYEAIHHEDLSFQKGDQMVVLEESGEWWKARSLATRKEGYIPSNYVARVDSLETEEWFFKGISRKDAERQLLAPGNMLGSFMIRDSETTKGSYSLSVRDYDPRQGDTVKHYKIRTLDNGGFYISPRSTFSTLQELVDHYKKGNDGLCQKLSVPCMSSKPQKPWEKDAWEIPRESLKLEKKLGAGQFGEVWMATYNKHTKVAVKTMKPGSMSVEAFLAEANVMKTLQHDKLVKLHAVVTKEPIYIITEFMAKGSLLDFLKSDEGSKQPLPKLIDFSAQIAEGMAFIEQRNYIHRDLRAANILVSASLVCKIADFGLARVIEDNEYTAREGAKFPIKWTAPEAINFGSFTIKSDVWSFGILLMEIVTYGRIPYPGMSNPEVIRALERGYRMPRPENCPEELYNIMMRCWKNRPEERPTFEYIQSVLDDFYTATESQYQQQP
T3 sequence (Q02763 23-1124, species assumed): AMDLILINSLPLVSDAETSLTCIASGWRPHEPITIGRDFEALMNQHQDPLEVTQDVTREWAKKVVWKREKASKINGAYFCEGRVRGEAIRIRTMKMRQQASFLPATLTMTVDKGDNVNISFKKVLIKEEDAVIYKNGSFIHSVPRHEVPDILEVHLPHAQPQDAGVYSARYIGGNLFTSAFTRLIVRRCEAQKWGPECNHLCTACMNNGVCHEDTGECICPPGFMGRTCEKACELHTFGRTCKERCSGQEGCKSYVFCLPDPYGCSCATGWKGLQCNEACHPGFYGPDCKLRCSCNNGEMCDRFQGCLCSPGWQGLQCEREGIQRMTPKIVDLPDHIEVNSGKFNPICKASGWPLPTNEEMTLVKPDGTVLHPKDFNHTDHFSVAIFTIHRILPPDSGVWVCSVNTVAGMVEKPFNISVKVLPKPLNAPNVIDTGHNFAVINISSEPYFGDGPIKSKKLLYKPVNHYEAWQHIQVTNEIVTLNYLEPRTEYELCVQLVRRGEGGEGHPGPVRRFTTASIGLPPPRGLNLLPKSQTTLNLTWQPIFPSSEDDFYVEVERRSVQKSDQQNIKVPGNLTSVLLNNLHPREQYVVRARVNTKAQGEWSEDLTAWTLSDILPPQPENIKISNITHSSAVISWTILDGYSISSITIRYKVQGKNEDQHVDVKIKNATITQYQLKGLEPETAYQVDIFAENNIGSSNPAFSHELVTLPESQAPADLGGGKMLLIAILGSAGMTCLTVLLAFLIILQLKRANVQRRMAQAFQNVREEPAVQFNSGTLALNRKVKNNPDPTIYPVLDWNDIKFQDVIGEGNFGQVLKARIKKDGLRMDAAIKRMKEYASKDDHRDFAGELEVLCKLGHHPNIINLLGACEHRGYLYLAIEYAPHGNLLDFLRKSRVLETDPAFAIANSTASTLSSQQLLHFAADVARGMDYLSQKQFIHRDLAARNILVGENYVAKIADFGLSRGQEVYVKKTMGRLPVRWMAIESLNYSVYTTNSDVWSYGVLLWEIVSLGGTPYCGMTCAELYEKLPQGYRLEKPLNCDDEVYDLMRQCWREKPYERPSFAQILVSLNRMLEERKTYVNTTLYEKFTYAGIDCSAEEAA
T7 sequence (P07949 29-1114): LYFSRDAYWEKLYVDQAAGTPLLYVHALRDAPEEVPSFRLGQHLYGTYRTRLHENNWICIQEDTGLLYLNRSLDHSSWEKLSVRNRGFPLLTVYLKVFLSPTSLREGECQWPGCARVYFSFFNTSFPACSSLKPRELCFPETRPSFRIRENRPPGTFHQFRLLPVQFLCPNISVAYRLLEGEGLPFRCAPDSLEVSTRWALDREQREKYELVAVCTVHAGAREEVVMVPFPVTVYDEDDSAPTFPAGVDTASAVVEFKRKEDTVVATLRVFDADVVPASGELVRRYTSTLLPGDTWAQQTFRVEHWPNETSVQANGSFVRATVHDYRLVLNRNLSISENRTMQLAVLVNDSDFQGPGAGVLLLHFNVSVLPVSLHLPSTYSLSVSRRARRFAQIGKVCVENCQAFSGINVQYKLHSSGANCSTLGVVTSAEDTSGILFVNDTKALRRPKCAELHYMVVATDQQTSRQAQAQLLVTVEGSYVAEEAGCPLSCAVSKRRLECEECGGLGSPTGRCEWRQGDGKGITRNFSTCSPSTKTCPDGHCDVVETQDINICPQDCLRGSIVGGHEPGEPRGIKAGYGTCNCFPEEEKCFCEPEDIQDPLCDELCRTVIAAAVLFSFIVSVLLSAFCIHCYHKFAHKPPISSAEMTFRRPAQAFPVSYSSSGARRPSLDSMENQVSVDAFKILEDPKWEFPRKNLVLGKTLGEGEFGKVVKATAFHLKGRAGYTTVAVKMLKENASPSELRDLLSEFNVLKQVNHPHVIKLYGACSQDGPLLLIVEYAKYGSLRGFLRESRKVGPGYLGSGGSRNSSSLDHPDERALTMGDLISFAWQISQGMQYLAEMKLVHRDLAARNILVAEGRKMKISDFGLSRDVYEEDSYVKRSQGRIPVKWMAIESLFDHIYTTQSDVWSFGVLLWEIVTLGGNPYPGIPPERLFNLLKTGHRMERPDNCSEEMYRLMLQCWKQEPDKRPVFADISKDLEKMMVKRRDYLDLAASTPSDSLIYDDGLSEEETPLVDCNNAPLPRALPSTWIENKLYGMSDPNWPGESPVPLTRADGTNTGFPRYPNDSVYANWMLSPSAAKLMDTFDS
T5 sequence (P17948 27-1338, species assumed): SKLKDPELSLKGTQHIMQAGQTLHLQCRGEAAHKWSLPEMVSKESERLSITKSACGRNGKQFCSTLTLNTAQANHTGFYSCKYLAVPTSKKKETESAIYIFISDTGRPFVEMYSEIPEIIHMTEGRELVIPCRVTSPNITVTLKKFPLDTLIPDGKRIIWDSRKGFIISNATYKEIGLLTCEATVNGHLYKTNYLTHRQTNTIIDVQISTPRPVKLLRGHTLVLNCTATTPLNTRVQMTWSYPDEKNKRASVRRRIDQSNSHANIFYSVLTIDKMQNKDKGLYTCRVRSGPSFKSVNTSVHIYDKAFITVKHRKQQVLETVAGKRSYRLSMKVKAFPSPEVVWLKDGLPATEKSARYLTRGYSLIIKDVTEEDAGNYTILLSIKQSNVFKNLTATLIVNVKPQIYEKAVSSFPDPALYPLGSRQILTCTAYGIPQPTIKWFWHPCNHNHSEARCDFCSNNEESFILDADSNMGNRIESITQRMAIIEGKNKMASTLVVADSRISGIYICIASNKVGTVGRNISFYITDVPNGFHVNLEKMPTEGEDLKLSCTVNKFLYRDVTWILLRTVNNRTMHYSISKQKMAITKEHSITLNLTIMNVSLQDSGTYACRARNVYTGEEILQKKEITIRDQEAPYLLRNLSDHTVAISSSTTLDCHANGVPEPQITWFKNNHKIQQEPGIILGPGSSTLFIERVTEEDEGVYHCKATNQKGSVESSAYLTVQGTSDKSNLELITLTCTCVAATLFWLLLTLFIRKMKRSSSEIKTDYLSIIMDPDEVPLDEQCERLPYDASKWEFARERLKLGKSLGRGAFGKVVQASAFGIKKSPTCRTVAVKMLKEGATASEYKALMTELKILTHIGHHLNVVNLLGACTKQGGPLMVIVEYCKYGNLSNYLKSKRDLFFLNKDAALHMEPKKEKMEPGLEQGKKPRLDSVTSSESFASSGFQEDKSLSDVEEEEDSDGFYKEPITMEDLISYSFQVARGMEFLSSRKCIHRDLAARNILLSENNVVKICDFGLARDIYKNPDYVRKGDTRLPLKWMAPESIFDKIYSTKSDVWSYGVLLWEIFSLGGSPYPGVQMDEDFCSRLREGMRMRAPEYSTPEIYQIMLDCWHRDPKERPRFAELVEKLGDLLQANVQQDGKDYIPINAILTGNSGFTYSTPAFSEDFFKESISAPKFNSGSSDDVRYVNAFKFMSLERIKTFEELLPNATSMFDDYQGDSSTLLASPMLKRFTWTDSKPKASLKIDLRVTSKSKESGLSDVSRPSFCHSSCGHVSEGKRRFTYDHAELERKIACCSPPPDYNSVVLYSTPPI
T2 sequence (Q9Y243 whole entry, the tested form may be a part): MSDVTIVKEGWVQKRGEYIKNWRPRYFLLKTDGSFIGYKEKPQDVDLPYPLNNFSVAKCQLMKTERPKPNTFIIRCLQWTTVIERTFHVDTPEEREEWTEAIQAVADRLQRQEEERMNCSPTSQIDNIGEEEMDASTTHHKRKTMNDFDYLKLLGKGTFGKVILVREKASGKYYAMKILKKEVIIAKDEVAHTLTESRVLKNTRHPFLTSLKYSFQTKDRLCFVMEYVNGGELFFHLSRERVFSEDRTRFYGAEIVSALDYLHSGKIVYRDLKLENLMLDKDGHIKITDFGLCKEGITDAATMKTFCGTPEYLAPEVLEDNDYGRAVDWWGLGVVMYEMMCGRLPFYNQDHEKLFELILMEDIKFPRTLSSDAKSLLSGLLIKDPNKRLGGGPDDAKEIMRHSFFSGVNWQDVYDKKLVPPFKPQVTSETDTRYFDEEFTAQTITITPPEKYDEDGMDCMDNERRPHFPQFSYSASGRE

Structure (SMILES)	IC50 (EPHB4)	IC50 (AKT)	IC50 (Tek)	IC50 (Hck-1)	IC50 (Flt-1)	IC50 (EGFR)	IC50 (Ret-1)	IC50 (ErbB2)
COc1cc(Nc2ncnc(Nc3ccc(OCc4ccccc4)cc3)n2)cc(OC)c1OC [Compound 926]	> 9.79 µM	> 9.79 µM	7.62 to 9.79 µM	> 9.79 µM	0.871 to 5.22 µM	0.871 to 5.22 µM	7.62 to 9.79 µM	
COc1cc(Nc2ncnc(Nc3cnc4ccccc4c3)n2)cc(OC)c1OC [Compound 99]	< 0.989 µM	> 11.1 µM	> 11.1 µM	8.65 to 11.1 µM	0.989 to 5.93 µM	0.989 to 5.93 µM	0.989 to 5.93 µM	
COc1cc(Nc2ncnc(Nc3ccc(O)cc3)n2)cc(OC)c1OC [Compound 85]	1.08 to 6.5 µM	> 12.2 µM	> 12.2 µM	> 12.2 µM	< 1.08 µM	1.08 to 6.5 µM	1.08 to 6.5 µM	
COc1cc(Nc2ncnc(Nc3ccc(C(C)C)cc3)n2)cc(OC)c1OC [Compound 66]	8.85 to 11.4 µM	> 11.4 µM	6.07 to 8.85 µM	> 11.4 µM	> 11.4 µM	> 11.4 µM	> 11.4 µM	
COc1cc(Nc2ncnc(Nc3ccc(N)cc3)n2)cc(OC)c1OC [Compound 92]	6.51 to 9.5 µM	9.5 to 12.2 µM	6.51 to 9.5 µM	> 12.2 µM	6.51 to 9.5 µM	1.09 to 6.51 µM	> 12.2 µM	
COC(=O)c1cccc(Nc2ncnc(Nc3cc(-c4ccco4)n[nH]3)n2)c1 [Compound 344]	1.06 to 6.36 µM	> 11.9 µM	> 11.9 µM	> 11.9 µM	6.36 to 9.27 µM	> 11.9 µM	1.06 to 6.36 µM	
COc1cccc(Nc2ncnc(Nc3cc(OC)c(OC)c(OC)c3)n2)c1 [Compound 87]	> 11.7 µM	> 11.7 µM	> 11.7 µM	> 11.7 µM	9.13 to 11.7 µM	1.04 to 6.26 µM	1.04 to 6.26 µM	< 1.04 µM
COc1cc(Nc2ncnc(Nc3cc(OC)c(OC)c(OC)c3)n2)cc(OC)c1 [Compound 86]	> 10.9 µM	> 10.9 µM	> 10.9 µM	> 10.9 µM	> 10.9 µM	> 10.9 µM	0.968 to 5.81 µM	0.968 to 5.81 µM
COc1cc(Nc2ncnc(Nc3ccc(C)c(O)c3)n2)cc(OC)c1OC [Compound 83]	1.04 to 6.26 µM	> 11.7 µM	9.13 to 11.7 µM	1.04 to 6.26 µM	< 1.04 µM	< 1.04 µM	< 1.04 µM	< 1.04 µM
COc1cc(Nc2ncnc(Nc3cccc(O)c3)n2)cc(OC)c1OC [Compound 78]	< 1.08 µM	> 12.2 µM	> 12.2 µM	1.08 to 6.5 µM	< 1.08 µM	< 1.08 µM	< 1.08 µM	
COc1cc(Nc2ncnc(Nc3ccc4[nH]ncc4c3)n2)cc(OC)c1OC [Compound 79]	< 1.02 µM	> 11.4 µM	> 11.4 µM	> 11.4 µM	1.02 to 6.1 µM	< 1.02 µM	> 11.4 µM	
COc1cc(Nc2ncnc(Nc3ccc4cn[nH]c4c3)n2)cc(OC)c1OC [Compound 70]	1.02 to 6.1 µM	> 11.4 µM	> 11.4 µM	> 11.4 µM	< 1.02 µM	1.02 to 6.1 µM	1.02 to 6.1 µM	
COc1cc(Nc2ncnc(Nc3ccccc3)n2)cc(OC)c1OC [Compound 91]	6.79 to 9.9 µM	> 12.7 µM	> 12.7 µM	> 12.7 µM	< 1.13 µM	1.13 to 6.79 µM	1.13 to 6.79 µM	1.13 to 6.79 µM
COc1ccc(Nc2ncnc(Nc3cc(OC)c(OC)c(OC)c3)n2)cc1 [Compound 89]	> 11.7 µM	> 11.7 µM	> 11.7 µM	> 11.7 µM	< 1.04 µM	1.04 to 6.26 µM	1.04 to 6.26 µM	
COc1cc(Nc2ncnc(Nc3ccc4[nH]ccc4c3)n2)cc(OC)c1OC [Compound 928]	< 1.02 µM	8.92 to 11.5 µM	> 11.5 µM	> 11.5 µM	< 1.02 µM	< 1.02 µM	< 1.02 µM	< 1.02 µM
COc1cc(Nc2ncnc(Nc3ccc(Oc4ccccc4)cc3)n2)cc(OC)c1OC [Compound 29]	> 10.1 µM	> 10.1 µM	> 10.1 µM	> 10.1 µM	< 0.898 µM	< 0.898 µM	< 0.898 µM	
COc1cc(Nc2ncnc(Nc3ccc(C(N)=O)cc3)n2)cc(OC)c1OC [Compound 33]	> 11.4 µM	> 11.4 µM	> 11.4 µM	> 11.4 µM	> 11.4 µM	> 11.4 µM	> 11.4 µM	
COc1cc(Nc2ncnc(-n3cc(CC(N)=O)c4ccccc43)n2)cc(OC)c1OC [Compound 353]	> 10.4 µM	> 10.4 µM	> 10.4 µM	> 10.4 µM	< 0.921 µM	> 10.4 µM	< 0.921 µM	
COc1cc(Nc2ncnc(-n3c(N)nc4ccccc43)n2)cc(OC)c1OC [Compound 289]	1.02 to 6.1 µM	> 11.4 µM	1.02 to 6.1 µM	> 11.4 µM	< 1.02 µM	> 11.4 µM	1.02 to 6.1 µM	> 11.4 µM
COc1cc(Nc2ncnc(Nc3ccc(O)cc3Cl)n2)cc(OC)c1OC [Compound 77]	0.991 to 5.94 µM	> 11.1 µM	> 11.1 µM	> 11.1 µM	0.991 to 5.94 µM	0.991 to 5.94 µM	0.991 to 5.94 µM	
COc1cc(Nc2ncnc(Nc3ccccc3C)n2)cc(OC)c1OC [Compound 67]	6.53 to 9.53 µM	> 12.2 µM	> 12.2 µM	> 12.2 µM	9.53 to 12.2 µM	6.53 to 9.53 µM	> 12.2 µM	
COc1cc(Nc2ncnc(Nc3cc(Cl)c(O)c(Cl)c3)n2)cc(OC)c1OC [Compound 68]	0.913 to 5.48 µM	> 10.3 µM	> 10.3 µM	> 10.3 µM	< 0.913 µM	< 0.913 µM	0.913 to 5.48 µM	
O=C1OCc2ccc(Nc3ncnc(Nc4cc(-c5ccco5)n[nH]4)n3)cc21 [Compound 364]	1.07 to 6.39 µM	> 12 µM	> 12 µM	> 12 µM	1.07 to 6.39 µM	1.07 to 6.39 µM	1.07 to 6.39 µM	
COc1cc(Nc2ncnc(Nc3cc(C)c(O)cc3C)n2)cc(OC)c1OC [Compound 94]	1.01 to 6.04 µM	> 11.3 µM	> 11.3 µM	> 11.3 µM	8.81 to 11.3 µM	< 1.01 µM	> 11.3 µM	
COc1cc(Nc2ncnc(Nc3ccccc3F)n2)cc(OC)c1OC [Compound 65]	6.46 to 9.42 µM	> 12.1 µM	> 12.1 µM	> 12.1 µM	1.08 to 6.46 µM	< 1.08 µM	1.08 to 6.46 µM	
COc1ccccc1Nc1ncnc(Nc2cc(OC)c(OC)c(OC)c2)n1 [Compound 90]	1.04 to 6.26 µM	> 11.7 µM	> 11.7 µM	1.04 to 6.26 µM	1.04 to 6.26 µM	1.04 to 6.26 µM	1.04 to 6.26 µM	
NC(=O)c1ccc(Nc2ncnc(Nc3cc(-c4ccco4)n[nH]3)n2)cc1 [Compound 341]	1.1 to 6.62 µM	> 12.4 µM	> 12.4 µM	> 12.4 µM	< 1.1 µM	6.62 to 9.66 µM	< 1.1 µM	
COc1cc(Nc2ncnc(Nc3cccc(Br)c3)n2)cc(OC)c1OC [Compound 75]	< 0.925 µM	8.1 to 10.4 µM	> 10.4 µM	> 10.4 µM	> 10.4 µM	< 0.925 µM	> 10.4 µM	
